Source: PMC12646544, “Bioremediation of acetamiprid and sulfoxaflor co-contamination by Ensifer sp. DA6 and characterization of a novel nitrile hydratase involved” (Frontiers in Microbiology, 2025)

System: T1, Ensifer sp. DA6 NHase
T1 construct: gene nthA; NHase gene cluster (alpha, beta, accessory) in pET28a, E. coli Rosetta (DE3), N-terminal 6xHis-tag, Ni-NTA purified; cobalt type; accessory protein not detected on SDS-PAGE; forward primer encodes MSEHHHG; alpha motif VCTLCSC; with Nitrile hydratase accessory protein
Test: HPLC, Michaelis-Menten non-linear regression
Type: biochemical
Details: 50 mmol/L PBS pH 7.0, 45 °C, cobalt enzyme, 25-1,000 mg/L substrate
Source text: HPLC, Michaelis-Menten non-linear regression on Ensifer sp.

Structure (SMILES) | Km (60 min) [mM] | Km (30 min, stereoisomer mixture) [mM]
C/C(=N\C#N)N(C)Cc1ccc(Cl)nc1 [ACE, N-[(6-chloro-3-pyridyl)methyl]-N′-cyano-N-methylacetamidine] | 8.16 | 
CC(c1ccc(C(F)(F)F)nc1)S(C)(=O)=NC#N (centres unmarked) [SUL, [N-(methyloxido{1-[6-(trifluoromethyl)-3-pyridinyl]ethyl}-λ^4-sulfanylidene)cyanamide]] |  | 7.93
